# Results published in PubChem BioAssay AID624167 (Sanford-Burnham Center for Chemical Genomics, 2012).
# Calls of active or inactive are those of the source.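 Rule for the calls: active = mean IC50 for reducing PEG3 promoter reporter signal at or below a set limit, with IC50 above the limit in both counter screens; inactive = the rest, including counter screen hits.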
# Legend:
# Test in all cases: Peg3 promoter luciferase inhibitors, potency, dose response, cell-based, HeLa, CREF/GAPDH counter-screen panel (AID 624167)
# PEG-3 [1] = target: PEG-3 (UniProt Q6IN02); details: HeLa PEG-Prom luciferase reporter, overnight, CREF/GAPDH counter-screens, mean of runs
# PEG-3 (UniProt Q6IN02), sequence (Q6IN02 whole entry, looked up): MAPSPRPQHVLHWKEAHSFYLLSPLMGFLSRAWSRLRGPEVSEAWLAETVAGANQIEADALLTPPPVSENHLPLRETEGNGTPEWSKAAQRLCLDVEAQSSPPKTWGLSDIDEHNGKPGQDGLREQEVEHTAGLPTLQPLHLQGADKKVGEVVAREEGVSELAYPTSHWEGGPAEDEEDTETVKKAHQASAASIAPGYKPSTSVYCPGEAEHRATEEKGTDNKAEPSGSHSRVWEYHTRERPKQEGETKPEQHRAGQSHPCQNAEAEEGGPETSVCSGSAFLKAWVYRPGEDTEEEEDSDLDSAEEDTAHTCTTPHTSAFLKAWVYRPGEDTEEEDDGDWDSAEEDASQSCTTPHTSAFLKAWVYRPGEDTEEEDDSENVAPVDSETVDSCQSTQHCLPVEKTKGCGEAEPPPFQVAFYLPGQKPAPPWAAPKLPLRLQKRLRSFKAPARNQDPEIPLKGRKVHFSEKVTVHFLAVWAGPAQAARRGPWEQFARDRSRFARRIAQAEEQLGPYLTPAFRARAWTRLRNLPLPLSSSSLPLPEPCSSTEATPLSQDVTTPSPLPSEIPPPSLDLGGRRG
# Rat fibroblasts (CREF) = details: CREF/GAPDH counter-screens
# PEG-3 [2] = details: HeLa PEG-Prom luciferase reporter, overnight, CREF/GAPDH counter-screens
# [3] = run 1, dose range 1, individual replicate IC50 per panel
# [4] = run 2, dose range 1, individual replicate IC50 per panel
SMILES,IC50 (PEG-3 [1]),IC50 (Rat fibroblasts (CREF); mean of runs),IC50 (Rat fibroblasts (CREF); [3]),IC50 (Rat fibroblasts (CREF); [4]),IC50 (PEG-3 [2]; [3]),IC50 (PEG-3 [2]; [4])
c1cc2c(cc1C1=NNC(=NC3CC3)SC1)OCCO2,0.764 µM,4.72 µM,1.39 µM,8.06 µM,0.657 µM,0.872 µM
Cc1csc(NC(=O)c2cn3ccccc3n2)n1,4.15 µM,1.09 µM,1.11 µM,1.07 µM,2.68 µM,5.62 µM
COC(=O)c1c(N)sc(C(=O)NCCc2ccccc2)c1C,2.46 µM,3.88 µM,4.38 µM,3.38 µM,2.22 µM,2.69 µM
Cc1ccc2nc(-c3ccc(Br)cc3)cn2c1,6.1 µM,7.81 µM,2.93 µM,12.7 µM,3.13 µM,9.07 µM
Cc1cc(C(=O)COC(=O)c2ccccc2O)c(C)n1Cc1cccs1,3.32 µM,1.36 µM,0.812 µM,1.9 µM,1.79 µM,4.86 µM
CCCS(=O)(=O)c1cnc(C2COc3ccccc3O2)nc1N (configuration not stated),3.78 µM,10.8 µM,9.07 µM,12.5 µM,2.52 µM,5.04 µM
Cc1nc2cc(-c3ccccc3)sc2c(=O)n1N,1.41 µM,3.4 µM,3.94 µM,2.87 µM,1.49 µM,1.34 µM
CN=c1scc(-c2cccs2)n1/N=C/c1ccccc1O,inactive,5.44 µM,5.28 µM,5.6 µM,0.26 µM,> 100 µM
COc1ccc(CCN2C(=O)C=CC2=O)cc1OC,8.69 µM,7.92 µM,6.39 µM,9.45 µM,10 µM,7.39 µM
Oc1c(Br)cc(Br)c2cccnc12,6.72 µM,9.01 µM,11.8 µM,6.27 µM,4.4 µM,9.05 µM
O=C(NC1=NCCS1)C1COc2ccccc2O1 (configuration not stated),1.88 µM,15.1 µM,14.5 µM,15.7 µM,1.36 µM,2.39 µM
O=C(Nc1ncc([N+](=O)[O-])s1)c1ccc2c(c1)OCO2,2.21 µM,10.8 µM,8.9 µM,12.8 µM,2.01 µM,2.41 µM
O=c1c2ccccc2cnn1-c1nc2ccccc2[nH]1,0.723 µM,0.546 µM,0.475 µM,0.617 µM,0.686 µM,0.76 µM
CC(=O)Nc1ccc(NC(=O)c2nc(S(=O)(=O)Cc3cccc(C)c3)ncc2Cl)cc1,7.65 µM,6.67 µM,4.5 µM,8.85 µM,9.47 µM,5.84 µM
NC(Cc1ccc(F)cc1)c1csc(Nc2cc(Oc3ccccc3)ncn2)n1 (configuration not stated),10.2 µM,17.2 µM,21.3 µM,13.1 µM,13.2 µM,7.16 µM
CN1CCN(c2ccc(-c3ccc4ccccc4n3)cc2)CC1,inactive,2.36 µM,2.93 µM,1.79 µM,7.84 µM,> 100 µM
Cc1ccc2nc(NC(=O)c3ccccn3)sc2c1,1.24 µM,0.83 µM,0.564 µM,1.1 µM,1.29 µM,1.18 µM
C=CCn1c(C)cc(C(=O)CN2C(=O)c3ccccc3S2(=O)=O)c1C,0.55 µM,2.71 µM,1.68 µM,3.73 µM,0.795 µM,0.306 µM
Cc1ccc2oc(/N=C(\N)NC(=O)C(C)(C)C)nc2c1,inactive,2.99 µM,0.412 µM,5.57 µM,0.725 µM,> 100 µM
CCOc1ccc(-c2ccc(SC)nn2)cc1,4.15 µM,0.473 µM,0.313 µM,0.632 µM,2.87 µM,5.43 µM
Cc1cccc(CS(=O)(=O)c2ncc(Cl)c(C(=O)Nc3ccc(F)cc3)n2)c1,4.73 µM,2.02 µM,> 80 µM,2.02 µM,6.01 µM,3.44 µM
CN=c1scc(-c2ccccc2F)n1/N=C/c1ccc[nH]1,inactive,4.52 µM,4.41 µM,4.63 µM,4.9 µM,> 100 µM
COc1cccc2nc3c(C(=O)NCCN(C)C)cccc3cc12,9.14 µM,8.72 µM,12 µM,5.44 µM,11.2 µM,7.03 µM
COc1cc(NS(C)(=O)=O)ccc1Nc1c2ccccc2nc2ccccc12,10.7 µM,4.97 µM,8.61 µM,1.33 µM,11 µM,10.4 µM

SMILES,IC50 (PEG-3 [1]),IC50 (Rat fibroblasts (CREF); mean of runs),IC50 (Rat fibroblasts (CREF); [3]),IC50 (Rat fibroblasts (CREF); [4]),IC50 (PEG-3 [2]; [3]),IC50 (PEG-3 [2]; [4])
O=C(Nc1cccc(C(=O)O)c1)Nc1ccc2c(c1)OCO2,8.34 µM,17.4 µM,14.2 µM,20.7 µM,3.5 µM,13.2 µM
N=c1n(CCN2CCCCC2)c2ccccc2n1CC(O)c1ccc(Cl)c(Cl)c1 (configuration not stated),9.46 µM,14.2 µM,13.6 µM,14.8 µM,10.1 µM,8.8 µM
COc1ccc(C(=O)CN2C(=O)c3ccccc3S2(=O)=O)cc1,3.28 µM,3.15 µM,3.25 µM,3.04 µM,2.96 µM,3.59 µM
COC(=O)c1nn(-c2ccc3c(c2)CCN3C(C)=O)cc1O,4.81 µM,4.48 µM,5.01 µM,3.95 µM,3.93 µM,5.69 µM
Cc1cnc(NC(=O)c2ccc3c(c2)OCCO3)s1,inactive,0.454 µM,0.378 µM,0.53 µM,0.647 µM,> 100 µM
C=CCn1c(C)cc(C2=NNC(=NCC)SC2)c1C,2.37 µM,1.72 µM,1.49 µM,1.95 µM,3.02 µM,1.72 µM
O=C(c1ccc(Cl)cc1)N1CCCCC(Sc2nnc(-c3ccc4c(c3)OCO4)o2)C1=O (configuration not stated),2.29 µM,2.25 µM,3.87 µM,0.643 µM,0.669 µM,3.91 µM
Cc1ccccc1OCC(=O)Nc1cccc(C(=O)O)c1,1.85 µM,18.4 µM,35.8 µM,1.11 µM,1.6 µM,2.1 µM
Cc1nc(-c2ccc(NC(=O)c3ccco3)cc2)cs1,1.54 µM,0.433 µM,0.43 µM,0.436 µM,1.39 µM,1.69 µM
O=C(Nc1nc2cc3c(cc2s1)OCCO3)C1=COCCO1,0.526 µM,0.924 µM,0.575 µM,1.27 µM,0.431 µM,0.622 µM
Cc1ccc(-c2nc(-c3ccccn3)no2)cc1Cl,1.64 µM,1.31 µM,1.22 µM,1.4 µM,1.19 µM,2.09 µM
CC1CCN(c2ccc(-c3cccc(NC(=O)C(F)(F)F)c3)nn2)CC1,2.11 µM,0.853 µM,0.869 µM,0.837 µM,1.84 µM,2.37 µM
Cc1ccccc1OCC(O)CNC1CCC(NCC(O)COc2ccccc2C)CC1 (configuration not stated),7.15 µM,10.8 µM,8.94 µM,12.6 µM,9.8 µM,4.49 µM
CCn1nc(C)cc1-c1nnc(Sc2ncc([N+](=O)[O-])s2)n1C,6.37 µM,4.87 µM,5.31 µM,4.43 µM,8.65 µM,4.09 µM
O=C1C(Cl)=C(Nc2ccccc2)C(=O)c2ccccc21,7.18 µM,7.13 µM,4.48 µM,9.78 µM,12.5 µM,1.9 µM
O=c1c2ccccc2sc2ccc(C#CC3(O)CCCCC3)cc12,inactive,1.81 µM,1.36 µM,2.27 µM,2.93 µM,> 100 µM
CN(C)CCCN(C(=O)c1ccc(S(=O)(=O)N2CCc3ccccc3C2)cc1)c1nc2ccc(F)cc2s1,10 µM,13.4 µM,9.84 µM,17 µM,11.3 µM,8.74 µM
CCCOc1ccc2cc(-c3ccccn3)c(=O)oc2c1,3.51 µM,1.33 µM,1.09 µM,1.58 µM,2.05 µM,4.96 µM
Cc1cc(/C=N/Nc2ncnc(N)c2[N+](=O)[O-])c(C)n1-c1ccccc1,11 µM,1.79 µM,1.54 µM,2.04 µM,9.88 µM,12 µM
O=C(Nc1ccc([N+](=O)[O-])cc1)C(=O)Nc1cccc(C(=O)O)c1,1.23 µM,2.67 µM,2.35 µM,3 µM,1.05 µM,1.4 µM
CN[C@H]1C[C@H]2c3[nH]c4ccc(-c5ccc(OC)cc5)cc4c3CCN2C(=O)[C@H]1[C@H](C)O,10.5 µM,16.1 µM,16.9 µM,15.3 µM,12.5 µM,8.39 µM
Cc1ccc(C(=O)CN2C(=O)c3ccccc3S2(=O)=O)cc1,6.27 µM,8.72 µM,8.77 µM,8.68 µM,6.12 µM,6.43 µM
O=C(COc1ccc(Cl)cc1Cl)Nc1ccccn1,0.93 µM,0.904 µM,0.795 µM,1.01 µM,1.27 µM,0.594 µM
